Assay results as given in patent publication EP0610475B1, “NERVE-DERIVED TRANSG[…] USEFUL FOR INDUCING NERVE REGENERATION” (YEDA RESEARCH AND DEVELOPMENT COMPANY, LTD., priority 1992, dated 1994).
Read-outs that look alike come from different tables or passages of the source.

Tested on: nerve-derived transglutaminase (TGN) purified from regenerating fish optic nerve, Carp (Cyprinus carpio), 55 kDa
Description: The incorporation of radioactive putrescine to a carrier protein is an assay characteristic of enzymes of the transglutaminase family. Any carrier protein that has lysine residues may be used in the assay, such as casein, bovine serum albumin, etc.
In this example, activity characteristic of the nerve-derived transglutaminase was measured by incorporation of [^14C)putrescine into N,N-dimethylcasein (Chakrabarty et al., 1987). The purified TGN enzyme eluted from the TG-Ab affinity column with glycine in Example 3 was dialyzed for 2 hours in the presence of N,N-dimethylcasein (1 mg/ml), before being added to the reaction mixture. The reaction was initiated by addition of […] TGN ([…]), followed by incubation for 20 min at 37°C and terminated by the addition of ice-cold trichloroacetic acid (TCA; final concentration, 5%).
The enzyme activity was titrated with respect to temperature and pH and substrate concentration. […] Titration was carried out by measuring incorporation of [^14C]putrescine to caseine in the presence of TGN.

## NCCCCN [putrescine]
Incorporation of [^14C]putrescine to caseine in the presence of TGN, calculated from titration of activity as a function of substrate concentration, 20 min at 37°C
  Km: 0.55 µM
read-out: Km in the incorporation of putrescine, calculated as a function of substrate, list of TGN characteristics, unit inferred
  Km: 0.55 µM
